Legend:
Type in all cases: in vivo
soybean (Glycine max) [1] = experiment: Test Example 2 upland soil treatment, crop phytotoxicity; conditions: Table 5, upland soil treatment, index 0-5
Experimental: (§1) A plastic pot of 130 cm^2 was filled with upland soil. Subsequently, weed seeds of Setaria viridis, Digitaria adscendens, Chenopodium album and Stellaria media, and crop seeds of soybean (Glycine max) and wheat (Triticum aestivum), were sowed and covered with soil of about 1 cm thickness. On the next day after the sowing, the wettable powder prepared in Formulation Example 1 was diluted with water such that the amount of the active ingredient became 1 kg per hectare, and then uniformly applied to the soil surface. On the 21st day after the application, observation and evaluation were carried out according to the aforesaid criteria.
(§2) Herbicidal activity was evaluated based on the following criteria.
(§3) • 5: herbicidal effect of not less than 90%, or phytotoxicity of 90% or more • 4: herbicidal effect of not less than 70% and less than 90%, or phytotoxicity of 70% or more and less than 90% • 3: herbicidal effect of not less than 50% and less than 70%, or phytotoxicity of 50% or more and less than 70% • 2: herbicidal effect of not less than 30% and less than 50%, or phytotoxicity of 30% or more and less than 50% • 1: herbicidal effect of not less than 10% and less than 30%, or phytotoxicity of 10% or more and less than 30% • 0: herbicidal effect of not less than 0% and less than 10%, or phytotoxicity of 0% or more and less than 10%

[2] = test system: wheat (Triticum aestivum); experiment: as above; conditions: Table 5, upland soil treatment, index 0-5
Experimental: as §1, §2, §3

Digitaria adscendens [3] = experiment: Test Example 1 upland field foliage treatment; conditions: Table 4, upland field foliage treatment, index 0-5
How it was run: (§4)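 Seeds sown in upland soil in pots and covered with about 1 cm soil; on day 14 after sowing, diluted wettable powder applied uniformly to leaves at 1 kg active ingredient per hectare. Weed control or crop phytotoxicity scored visually 21 days after application on a 0–5 scale (5 = ≥90%, 0 = <10%).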

Stellaria media [4] = experiment: Test Example 1 upland field foliage treatment; conditions: Table 4, upland field foliage treatment, index 0-5
How it was run: as §4

Setaria viridis [5] = experiment: Test Example 1 upland field foliage treatment; conditions: Table 4, upland field foliage treatment, index 0-5
How it was run: as §4

Chenopodium album [6] = experiment: Test Example 1 upland field foliage treatment; conditions: Table 4, upland field foliage treatment, index 0-5
How it was run: as §4

soybean (Glycine max) [7] = experiment: Test Example 1 upland field foliage treatment, crop phytotoxicity; conditions: Table 4, upland field foliage treatment, index 0-5
How it was run: as §4

[8] = test system: wheat (Triticum aestivum); experiment: as above; conditions: Table 4, upland field foliage treatment, index 0-5
How it was run: as §4

Digitaria adscendens [9] = experiment: Test Example 2 upland soil treatment; conditions: Table 5, upland soil treatment, index 0-5
Experimental: as §1, §2, §3

Stellaria media [10] = experiment: Test Example 2 upland soil treatment; conditions: Table 5, upland soil treatment, index 0-5
Experimental: as §1, §2, §3

Setaria viridis [11] = experiment: Test Example 2 upland soil treatment; conditions: Table 5, upland soil treatment, index 0-5
Experimental: as §1, §2, §3

Chenopodium album [12] = experiment: Test Example 2 upland soil treatment; conditions: Table 5, upland soil treatment, index 0-5
Experimental: as §1, §2, §3

SMILES	Herbicidal activity (phytotoxicity) GM: Soybean (Glycine max) (soybean (Glycine max) [1])	Herbicidal activity (phytotoxicity) TA: Wheat (Triticum aestivum) [2]	Herbicidal activity DA: Digitaria adscendens (Digitaria adscendens [3])	Herbicidal activity SM: Stellaria media (Stellaria media [4])	Herbicidal activity SV: Setaria viridis (Setaria viridis [5])	Herbicidal activity CA: Chenopodium album (Chenopodium album [6])	Herbicidal activity (phytotoxicity) GM: Soybean (Glycine max) (soybean (Glycine max) [7])	Herbicidal activity (phytotoxicity) TA: Wheat (Triticum aestivum) [8]	Herbicidal activity DA: Digitaria adscendens (Digitaria adscendens [9])	Herbicidal activity SM: Stellaria media (Stellaria media [10])	Herbicidal activity SV: Setaria viridis (Setaria viridis [11])	Herbicidal activity CA: Chenopodium album (Chenopodium album [12])
CNC(=O)C(Cn1cc(C)c(-c2ccc(SC(F)(F)F)cc2)n1)=NOC [Compound 70]	0 (herbicidal effect of not less than 0% and less than 10%, or phytotoxicity of 0% or more and less than 10%)	0 (herbicidal effect of not less than 0% and less than 10%, or phytotoxicity of 0% or more and less than 10%)	5 (herbicidal effect of not less than 90%, or phytotoxicity of 90% or more)	4 (herbicidal effect of not less than 70% and less than 90%, or phytotoxicity of 70% or more and less than 90%)	4 (herbicidal effect of not less than 70% and less than 90%, or phytotoxicity of 70% or more and less than 90%)	5 (herbicidal effect of not less than 90%, or phytotoxicity of 90% or more)	0 (herbicidal effect of not less than 0% and less than 10%, or phytotoxicity of 0% or more and less than 10%)	0 (herbicidal effect of not less than 0% and less than 10%, or phytotoxicity of 0% or more and less than 10%)	3 (herbicidal effect of not less than 50% and less than 70%, or phytotoxicity of 50% or more and less than 70%)	4 (herbicidal effect of not less than 70% and less than 90%, or phytotoxicity of 70% or more and less than 90%)	3 (herbicidal effect of not less than 50% and less than 70%, or phytotoxicity of 50% or more and less than 70%)	4 (herbicidal effect of not less than 70% and less than 90%, or phytotoxicity of 70% or more and less than 90%)
CNC(=O)C(Cn1cc(C)c(-c2ccc(C)c(F)c2)n1)=NOC [Compound 74]	1 (herbicidal effect of not less than 10% and less than 30%, or phytotoxicity of 10% or more and less than 30%)	0 (herbicidal effect of not less than 0% and less than 10%, or phytotoxicity of 0% or more and less than 10%)	5 (herbicidal effect of not less than 90%, or phytotoxicity of 90% or more)	5 (herbicidal effect of not less than 90%, or phytotoxicity of 90% or more)	5 (herbicidal effect of not less than 90%, or phytotoxicity of 90% or more)	5 (herbicidal effect of not less than 90%, or phytotoxicity of 90% or more)	0 (herbicidal effect of not less than 0% and less than 10%, or phytotoxicity of 0% or more and less than 10%)	0 (herbicidal effect of not less than 0% and less than 10%, or phytotoxicity of 0% or more and less than 10%)	5 (herbicidal effect of not less than 90%, or phytotoxicity of 90% or more)	5 (herbicidal effect of not less than 90%, or phytotoxicity of 90% or more)	4 (herbicidal effect of not less than 70% and less than 90%, or phytotoxicity of 70% or more and less than 90%)	5 (herbicidal effect of not less than 90%, or phytotoxicity of 90% or more)
CNC(=O)C(Cn1cc(C)c(-c2ccc(F)c(C)c2)n1)=NOC [Compound 75]	1 (herbicidal effect of not less than 10% and less than 30%, or phytotoxicity of 10% or more and less than 30%)	0 (herbicidal effect of not less than 0% and less than 10%, or phytotoxicity of 0% or more and less than 10%)	5 (herbicidal effect of not less than 90%, or phytotoxicity of 90% or more)	5 (herbicidal effect of not less than 90%, or phytotoxicity of 90% or more)	5 (herbicidal effect of not less than 90%, or phytotoxicity of 90% or more)	5 (herbicidal effect of not less than 90%, or phytotoxicity of 90% or more)	0 (herbicidal effect of not less than 0% and less than 10%, or phytotoxicity of 0% or more and less than 10%)	0 (herbicidal effect of not less than 0% and less than 10%, or phytotoxicity of 0% or more and less than 10%)	4 (herbicidal effect of not less than 70% and less than 90%, or phytotoxicity of 70% or more and less than 90%)	5 (herbicidal effect of not less than 90%, or phytotoxicity of 90% or more)	4 (herbicidal effect of not less than 70% and less than 90%, or phytotoxicity of 70% or more and less than 90%)	5 (herbicidal effect of not less than 90%, or phytotoxicity of 90% or more)
CNC(=O)C(Cn1cc(C)c(-c2ccc(F)cc2Cl)n1)=NOC [Compound 82]	0 (herbicidal effect of not less than 0% and less than 10%, or phytotoxicity of 0% or more and less than 10%)	0 (herbicidal effect of not less than 0% and less than 10%, or phytotoxicity of 0% or more and less than 10%)	5 (herbicidal effect of not less than 90%, or phytotoxicity of 90% or more)	4 (herbicidal effect of not less than 70% and less than 90%, or phytotoxicity of 70% or more and less than 90%)	3 (herbicidal effect of not less than 50% and less than 70%, or phytotoxicity of 50% or more and less than 70%)	4 (herbicidal effect of not less than 70% and less than 90%, or phytotoxicity of 70% or more and less than 90%)	0 (herbicidal effect of not less than 0% and less than 10%, or phytotoxicity of 0% or more and less than 10%)	0 (herbicidal effect of not less than 0% and less than 10%, or phytotoxicity of 0% or more and less than 10%)	5 (herbicidal effect of not less than 90%, or phytotoxicity of 90% or more)	5 (herbicidal effect of not less than 90%, or phytotoxicity of 90% or more)	4 (herbicidal effect of not less than 70% and less than 90%, or phytotoxicity of 70% or more and less than 90%)	4 (herbicidal effect of not less than 70% and less than 90%, or phytotoxicity of 70% or more and less than 90%)
CNC(=O)C(Cn1cc(C)c(-c2ccc(F)c(Br)c2)n1)=NOC [Compound 83]	0 (herbicidal effect of not less than 0% and less than 10%, or phytotoxicity of 0% or more and less than 10%)	0 (herbicidal effect of not less than 0% and less than 10%, or phytotoxicity of 0% or more and less than 10%)	5 (herbicidal effect of not less than 90%, or phytotoxicity of 90% or more)	4 (herbicidal effect of not less than 70% and less than 90%, or phytotoxicity of 70% or more and less than 90%)	3 (herbicidal effect of not less than 50% and less than 70%, or phytotoxicity of 50% or more and less than 70%)	4 (herbicidal effect of not less than 70% and less than 90%, or phytotoxicity of 70% or more and less than 90%)	0 (herbicidal effect of not less than 0% and less than 10%, or phytotoxicity of 0% or more and less than 10%)	0 (herbicidal effect of not less than 0% and less than 10%, or phytotoxicity of 0% or more and less than 10%)	5 (herbicidal effect of not less than 90%, or phytotoxicity of 90% or more)	5 (herbicidal effect of not less than 90%, or phytotoxicity of 90% or more)	5 (herbicidal effect of not less than 90%, or phytotoxicity of 90% or more)	5 (herbicidal effect of not less than 90%, or phytotoxicity of 90% or more)

Source: patent US7192906B2, “Substituted pyrazole derivatives, production process thereof, and herbicide compositions containing the derivatives” (SDS Biotech K.K., priority 2001, dated 2007)
